The results in this text go back to US12037340B2, “Pentacyclic derivatives as Zika virus inhibitors” (Gilead Sciences, Inc., priority 2021, dated 2024).

The test system of this assay is ZIKV. Put plainly: microbe, parasite or virus in culture. It counts as cell-based, Zika virus. To be noted: 48 hrs.

In the case of `CC[C@H](C)[C@H](NC(=O)OC)C(=O)N1[C@H](c2nc(Cl)c(-c3ccc4c(c3)COc3cc5c(ccc6nc([C@@H]7C[C@@H]8CCC[C@@H]8N7C(=O)[C@@H](NC(=O)OC)[C@@H](C)CC)[nH]c65)cc3-4)[nH]2)C[C@@H]2CCC[C@@H]21` [Compound 35, methyl ((2S,3S)-1-((2S,3aS,6aS)-2-(4-chloro-5-(2-((2S,3aS,6aS)-1-((methoxycarbonyl)-L-isoleucyl)octahydrocyclopenta[b]pyrrol-2-yl)-1,11-dihydroisochromeno[4′,3′:6,7]naphtho[1,2-d]imidazol-9-yl)-1H-imidazol-2-yl)hexahydrocyclopenta[b]pyrrol-l(2H)-yl)-3-methyl-1-oxopentan-2-yl)carbamate], the EC50 (commonly the concentration at which the effect is half-maximal) was found to be 0.0209 µM.

With `COC[C@H]1C[C@@H](c2nc(Cl)c(-c3ccc4c(c3)COc3cc5c(ccc6nc([C@@H]7CC[C@H](C)N7C(=O)[C@@H](NC(=O)OC)C(C)C)[nH]c65)cc3-4)[nH]2)N(C(=O)[C@@H](NC(=O)OC)[C@@H](C)OC)C1` [Compound 5, methyl ((S)-1-((2S,5S)-2-(9-(4-chloro-2-((2S,4S)-1-(N-(methoxycarbonyl)-O-methyl-L-threonyl)-4-(methoxymethyl)pyrrolidin-2-yl)-1H-imidazol-5-yl)-1,11-dihydroisochromeno[4′,3′:6,7]naphtho[1,2-d]imidazol-2-yl)-5-methylpyrrolidin-1-yl)-3-methyl-1-oxobutan-2-yl)carbamate], where the note is “Zika virus, Huh-7”, the midpoint of the response, the EC50, lay at 0.124 µM.

`COC[C@H]1C[C@@H](c2nc(Br)c(-c3ccc4c(c3)COc3cc5c(ccc6nc([C@@H]7CC[C@H](C)N7C(=O)[C@@H](NC(=O)OC)C(C)C)[nH]c65)cc3-4)[nH]2)N(C(=O)[C@@H](NC(=O)OC)C(C)C)C1` [Compound 8, methyl ((S)-1-((2S,5S)-2-(9-(4-bromo-2-((2S,4S)-1-((methoxycarbonyl)-L-valyl)-4-(methoxymethyl)pyrrolidin-2-yl)-1H-imidazol-5-yl)-1,11-dihydroisochromeno[4′,3′:6,7]naphtho[1,2-d]imidazol-2-yl)-5-methylpyrrolidin-1-yl)-3-methyl-1-oxobutan-2-yl)carbamate] had an EC50 (Zika virus, Huh-7) of 0.0241 µM. This EC50 lies about 5.1-fold lower than the previous one.

For the molecule `COC(=O)N[C@H](C(=O)N1CCC[C@H]1c1nc(Cl)c(-c2ccc3c(c2)COc2cc4c(ccc5nc([C@@H]6CCCN6C(=O)[C@@H](NC(=O)OC)C(C)(C)C)[nH]c54)cc2-3)[nH]1)C(C)(C)C` [Compound 30, methyl ((S)-1-((S)-2-(4-chloro-5-(2-((S)-1-((S)-2-((methoxycarbonyl)amino)-3,3-dimethylbutanoyl)pyrrolidin-2-yl)-1,11-dihydroisochromeno[4′,3′:6,7]naphtho[1,2-d]imidazol-9-yl)-1H-imidazol-2-yl)pyrrolidin-1-yl)-3,3-dimethyl-1-oxobutan-2-yl)carbamate], the response (Zika virus, Huh-7) was half-maximal at 0.0447 µM (EC50).

For `COC(=O)N[C@H](C(=O)N1[C@@H](C)CC[C@H]1c1nc(Cl)c(-c2ccc3c(c2)COc2cc4c(ccc5nc([C@@H]6CC[C@H](C)N6C(=O)[C@@H](NC(=O)OC)C(C)(C)C(F)(F)F)[nH]c54)cc2-3)[nH]1)C(C)(C)C(F)(F)F` [Compound 24, methyl ((S)-1-((2S,5S)-2-(4-chloro-5-(2-((2S,5S)-5-methyl-1-((S)-4,4,4-trifluoro-2-((methoxycarbonyl)amino)-3,3-dimethylbutanoyl)pyrrolidin-2-yl)-1,11-dihydroisochromeno[4′,3′:6,7]naphtho[1,2-d]imidazol-9-yl)-1H-imidazol-2-yl)-5-methylpyrrolidin-1-yl)-4,4,4-trifluoro-3,3-dimethyl-1-oxobutan-2-yl)carbamate], a half-maximal response (Zika virus, Huh-7) (EC50) required 0.0042 µM.
